Results as given in US6905852B1, “Herbicide-resistant protoporphyrinogen oxidase isolated from Nicotiana tabacum” (Nihon Nohyaku Co., Ltd., priority 1997, dated 2005).

Test system: transformed tobacco plant, Arabidopsis thaliana resistant type (pBI-AtPX-RC)
Assay: Leaf disk method, bleaching
Assay type: cell-based, N. Tabacum var. SR1
Method: The A. tumefacience having the binary vector which had been stored at −80° C. was cultured with shaking at 27° C. for 24 hours in 523 liquid medium (1% sucrose, 0.8% Bacto-tryptone, 0.4% Bacto-yeast extract, 0.2% K2HPO4, 0.03% MgSO4.7H2O) containing kanamycin. A disk (9 mm diameter) of a tobacco (N. Tabacum var. SR1) leaf which had been surface sterilized was immersed for one minute into the culture of the A. tumefacience, and then the culture liquid attached thereon was removed with a sterilized paper towel. The leaf disk was transferred into MS agar medium containing 0.6% agar in which 2 ppm NAA and 0.2 ppm BA were added, with the reverse side of leaf being made upside, and incubated at 25° C. for 48 hours. The leaf disk was transferred into MS liquid medium containing 500 ppm carbenicillin, 200 ppm claforan, 2 ppm NAA and 0.2 ppm BA and cultured with shaking at 27° C. for 48-72 hours to remove A. tumefacience. The leaf disk was transferred into MS liquid medium containing 0.6% agar, 100 ppm of carbenycillin, 200 ppm of claforan and 150 ppm of kanamycin, 2 ppm NAA and 0.2 ppm BA and incubated at 27° C. for 2-3 weeks and formation of shoot was induced. The shoot was transferred into medium for root development (½ MS, 0.02 ppm IBA, 1.5% sucrose, 0.2% gellan gum) and development of root was introduced. The young plant thus obtained was transferred into culture soil, and was grown in a green house.
From the transformed plant with which the confirmation of introduction of gene was finished, and non-transformed plant used as a control, a leaf almost the same position of the leaf was picked and 9 mm diameter leaf disks were prepared, and floated on a dish in which 0, 125, 250, 1,250, 2,500, 5,000, 12,500 nM of compound A aqueous solution were contained. After incubation at 27° C. for one week under continuous strong light, the bleaching of the leaf disks was observed, and the permissive concentration to compound A was calculated. As a result (Table 7), in case that the tolerant type of protoporphirinogen oxidase cDNA from tobacco was introduced by pBI-NtPX-RC, more than 100 times of tolerance was observed comparing to the control non-transformed plant. However, in case that rsistant type cDNA from Arabidopsis thaliana was introduced by pBI-AtPX-RC, 4 times of resistance was observed comparing to the control, and in case that the wild type cDNA was introduced, high resistance was not observed in each case.

CCOC(=O)COc1cc(-c2nn(C)c(OC(F)F)c2Cl)c(F)cc1Cl [Compound A, ethyl 2-chloro-5-(4-chloro-5-difluoromethoxy-1-methyl-1H-pyrazol-3-yl)-4-fluorophenoxyacetate]
Permission conc. to compound A (Arabidopsis thaliana resistant type (pBI-AtPX-RC)): 500 nM
Resistance (Arabidopsis thaliana resistant type, vs non-transformed): 4 X
